Source: patent publication US8466118B2, “Modulation of blood brain barrier protein expression” (Saint Louis University, priority 2007, dated 2013)
Oligonucleotides are written 5' to 3', each unit as a sugar letter and its base; * is a phosphorothioate linkage, no mark a phosphodiester; rarer units and linkages stand in square brackets, end groups in braces. Plain capitals give the bases only. d = 2'-deoxy (DNA)

Key:
P-glycoprotein = details: intracranial introduction, rat; cited from earlier work
LRP-1 [1] = target: T1, LRP-1 (Mus musculus, UniProt Q91ZX7); assay: Recognition of a novel object after chronic icv infusion; format: in vivo; details: 2 wk icv infusion 100 ng/h
T1 construct: from tissue; host or cells: brain of living mice (iv, icv or chronic icv antisense)
T1 sequence (Q91ZX7 20-4545): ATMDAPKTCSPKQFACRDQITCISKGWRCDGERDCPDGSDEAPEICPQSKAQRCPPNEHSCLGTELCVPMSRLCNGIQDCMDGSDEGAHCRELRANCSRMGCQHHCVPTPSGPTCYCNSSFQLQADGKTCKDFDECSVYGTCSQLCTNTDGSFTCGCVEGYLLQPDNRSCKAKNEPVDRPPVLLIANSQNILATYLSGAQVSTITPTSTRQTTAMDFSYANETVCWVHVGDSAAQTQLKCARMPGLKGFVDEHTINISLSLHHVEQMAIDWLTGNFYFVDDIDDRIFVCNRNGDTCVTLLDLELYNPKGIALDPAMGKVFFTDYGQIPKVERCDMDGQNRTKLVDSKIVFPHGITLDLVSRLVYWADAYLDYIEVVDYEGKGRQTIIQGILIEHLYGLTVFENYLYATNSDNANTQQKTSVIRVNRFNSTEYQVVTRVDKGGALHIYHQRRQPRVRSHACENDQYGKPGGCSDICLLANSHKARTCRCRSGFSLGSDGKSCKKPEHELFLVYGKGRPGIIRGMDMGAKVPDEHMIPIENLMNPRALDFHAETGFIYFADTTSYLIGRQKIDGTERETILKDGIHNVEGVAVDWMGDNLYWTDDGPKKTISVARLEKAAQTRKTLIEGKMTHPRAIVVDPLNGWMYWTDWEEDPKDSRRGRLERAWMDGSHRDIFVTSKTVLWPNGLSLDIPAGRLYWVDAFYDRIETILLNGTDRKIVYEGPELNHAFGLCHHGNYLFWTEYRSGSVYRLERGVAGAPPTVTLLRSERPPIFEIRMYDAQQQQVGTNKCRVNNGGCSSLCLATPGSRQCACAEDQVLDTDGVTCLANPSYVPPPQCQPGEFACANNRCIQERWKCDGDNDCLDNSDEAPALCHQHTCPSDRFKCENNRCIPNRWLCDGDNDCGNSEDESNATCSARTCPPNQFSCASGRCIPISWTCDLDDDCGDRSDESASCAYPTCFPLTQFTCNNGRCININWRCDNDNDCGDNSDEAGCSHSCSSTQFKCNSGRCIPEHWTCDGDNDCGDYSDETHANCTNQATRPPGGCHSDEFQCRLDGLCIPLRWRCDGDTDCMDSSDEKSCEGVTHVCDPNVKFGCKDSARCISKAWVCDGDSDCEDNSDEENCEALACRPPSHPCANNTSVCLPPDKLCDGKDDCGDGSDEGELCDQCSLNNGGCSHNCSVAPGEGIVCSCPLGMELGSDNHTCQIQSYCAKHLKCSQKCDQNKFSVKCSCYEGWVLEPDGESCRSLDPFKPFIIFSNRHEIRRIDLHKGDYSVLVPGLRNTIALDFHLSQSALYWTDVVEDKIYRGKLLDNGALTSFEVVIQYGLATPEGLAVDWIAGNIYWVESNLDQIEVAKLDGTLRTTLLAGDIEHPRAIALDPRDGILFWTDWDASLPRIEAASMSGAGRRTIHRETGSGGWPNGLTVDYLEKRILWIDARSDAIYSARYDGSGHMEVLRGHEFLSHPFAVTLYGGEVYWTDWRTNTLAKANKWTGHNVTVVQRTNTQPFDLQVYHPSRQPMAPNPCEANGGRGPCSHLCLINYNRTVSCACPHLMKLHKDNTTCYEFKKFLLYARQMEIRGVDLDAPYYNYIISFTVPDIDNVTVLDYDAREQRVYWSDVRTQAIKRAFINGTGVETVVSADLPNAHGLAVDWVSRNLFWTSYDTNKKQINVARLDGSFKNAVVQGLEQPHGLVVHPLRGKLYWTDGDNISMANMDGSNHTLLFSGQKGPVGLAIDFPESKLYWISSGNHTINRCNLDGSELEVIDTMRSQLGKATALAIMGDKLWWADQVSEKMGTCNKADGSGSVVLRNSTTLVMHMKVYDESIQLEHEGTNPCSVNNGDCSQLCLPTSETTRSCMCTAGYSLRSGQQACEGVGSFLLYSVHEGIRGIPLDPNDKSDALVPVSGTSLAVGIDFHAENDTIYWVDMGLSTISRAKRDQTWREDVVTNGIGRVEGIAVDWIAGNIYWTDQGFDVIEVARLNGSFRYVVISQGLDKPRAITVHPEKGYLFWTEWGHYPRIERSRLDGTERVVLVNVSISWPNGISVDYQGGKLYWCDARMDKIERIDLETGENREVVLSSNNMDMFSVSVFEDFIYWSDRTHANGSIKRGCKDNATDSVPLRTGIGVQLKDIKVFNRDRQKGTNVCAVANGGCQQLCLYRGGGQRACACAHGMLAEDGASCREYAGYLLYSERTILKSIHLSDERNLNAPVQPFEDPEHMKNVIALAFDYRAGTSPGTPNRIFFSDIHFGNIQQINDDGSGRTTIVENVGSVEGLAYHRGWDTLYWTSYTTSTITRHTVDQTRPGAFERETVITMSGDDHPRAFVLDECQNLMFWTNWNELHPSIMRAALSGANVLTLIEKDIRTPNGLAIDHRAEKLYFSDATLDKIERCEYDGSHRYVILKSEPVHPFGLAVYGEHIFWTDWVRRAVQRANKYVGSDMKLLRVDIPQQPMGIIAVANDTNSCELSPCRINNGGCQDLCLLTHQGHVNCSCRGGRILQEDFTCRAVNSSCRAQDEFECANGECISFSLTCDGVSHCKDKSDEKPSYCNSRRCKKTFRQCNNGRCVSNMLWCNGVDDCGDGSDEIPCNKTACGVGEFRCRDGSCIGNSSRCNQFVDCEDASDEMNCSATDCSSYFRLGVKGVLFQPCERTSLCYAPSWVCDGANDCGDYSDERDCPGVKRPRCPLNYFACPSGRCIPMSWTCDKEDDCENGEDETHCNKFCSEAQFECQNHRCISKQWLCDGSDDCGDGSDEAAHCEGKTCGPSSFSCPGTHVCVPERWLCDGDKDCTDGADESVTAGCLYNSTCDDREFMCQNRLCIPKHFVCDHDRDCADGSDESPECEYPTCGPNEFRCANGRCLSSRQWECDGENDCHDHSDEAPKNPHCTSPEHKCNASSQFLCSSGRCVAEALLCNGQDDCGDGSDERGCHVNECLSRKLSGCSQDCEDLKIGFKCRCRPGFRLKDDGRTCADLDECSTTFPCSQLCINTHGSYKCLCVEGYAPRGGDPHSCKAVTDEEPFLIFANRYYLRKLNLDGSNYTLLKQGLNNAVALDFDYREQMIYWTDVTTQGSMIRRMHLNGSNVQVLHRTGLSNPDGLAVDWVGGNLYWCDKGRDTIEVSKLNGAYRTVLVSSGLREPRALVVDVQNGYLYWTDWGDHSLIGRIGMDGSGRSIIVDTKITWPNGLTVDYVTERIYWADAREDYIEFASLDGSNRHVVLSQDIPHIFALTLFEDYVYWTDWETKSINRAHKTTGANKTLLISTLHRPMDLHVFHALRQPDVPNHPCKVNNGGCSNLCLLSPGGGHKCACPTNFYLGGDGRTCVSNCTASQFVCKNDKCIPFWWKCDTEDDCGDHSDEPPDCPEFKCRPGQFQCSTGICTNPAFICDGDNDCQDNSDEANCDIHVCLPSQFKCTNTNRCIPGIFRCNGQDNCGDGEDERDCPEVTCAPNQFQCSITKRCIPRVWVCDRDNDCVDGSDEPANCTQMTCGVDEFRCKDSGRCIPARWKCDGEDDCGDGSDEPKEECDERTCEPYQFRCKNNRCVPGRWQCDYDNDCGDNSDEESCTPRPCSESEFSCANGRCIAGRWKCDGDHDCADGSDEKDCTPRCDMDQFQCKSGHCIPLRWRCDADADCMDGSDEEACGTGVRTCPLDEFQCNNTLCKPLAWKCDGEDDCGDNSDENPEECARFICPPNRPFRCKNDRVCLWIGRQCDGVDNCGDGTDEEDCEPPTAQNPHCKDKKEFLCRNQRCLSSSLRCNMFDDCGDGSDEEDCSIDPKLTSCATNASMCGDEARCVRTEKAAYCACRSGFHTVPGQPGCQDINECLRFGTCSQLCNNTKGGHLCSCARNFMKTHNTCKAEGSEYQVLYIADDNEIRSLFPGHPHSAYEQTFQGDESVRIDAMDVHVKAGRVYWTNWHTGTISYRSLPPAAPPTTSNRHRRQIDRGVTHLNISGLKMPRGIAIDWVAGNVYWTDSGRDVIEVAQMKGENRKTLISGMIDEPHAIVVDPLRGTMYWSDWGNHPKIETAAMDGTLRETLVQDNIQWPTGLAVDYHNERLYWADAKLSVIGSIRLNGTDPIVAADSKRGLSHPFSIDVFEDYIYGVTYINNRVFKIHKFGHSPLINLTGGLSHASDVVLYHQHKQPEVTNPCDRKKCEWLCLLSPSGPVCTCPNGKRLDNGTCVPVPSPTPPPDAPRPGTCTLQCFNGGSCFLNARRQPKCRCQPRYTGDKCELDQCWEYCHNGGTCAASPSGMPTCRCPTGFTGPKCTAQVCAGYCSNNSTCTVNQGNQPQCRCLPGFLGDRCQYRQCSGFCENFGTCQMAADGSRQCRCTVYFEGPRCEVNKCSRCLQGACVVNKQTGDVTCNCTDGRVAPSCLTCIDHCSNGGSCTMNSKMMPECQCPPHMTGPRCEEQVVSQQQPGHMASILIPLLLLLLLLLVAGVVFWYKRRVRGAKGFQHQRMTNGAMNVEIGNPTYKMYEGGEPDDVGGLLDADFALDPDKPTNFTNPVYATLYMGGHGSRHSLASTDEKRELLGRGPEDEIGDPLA
Method: Recognition of a novel object: This method has been described previously(Jaeger et al., 2002). Briefly, recognition memory for a novel object was assessed in cocktail and random antisense treated animals (100 ng/h two week infusion). Prior to testing, mice were habituated for three consecutive days to the testing apparatus (a 58×66×11 cm white, plastic box). During habituation, each mouse was allowed to freely explore the testing apparatus for 5 min. On the first day of training, mice were placed in the testing apparatus for 5 min and allowed to explore a pair of identical objects (Objects A and B; both were 7×6.3×5.1 cm). On the second day of training, one of the original objects was replaced with a new, or novel, object (Object C; 8.2×3.8×7.4 cm). Mice were placed in the testing apparatus for 5 min and the amount of time each mouse spent sniffing or touching the novel object was recorded by an observer. Results from this study were expressed as the percent of time spent investigating the novel object.

LRP-1 [2] = assay: Immunohistochemistry of LRP-1 in isolated mouse brain microvessels (MBMs); format: cell-based; details: 10 μg/mL, 24 h, buffer = 100%
From the text: Isolation of mouse brain microvessels (MBMs): Mouse brain microvessels (MBMs) were isolated by a modification of a method of Gerhart et al (Brain Res Bull 21, 785-793, 1998). All glassware was pre-coated with phosphate buffered saline (PBS) supplemented with 1% BSA (1% BSA/PBS). This was done to minimize adhesion and to maximize recovery of microvessels. Briefly, ten to twelve cerebral cortices from adult male CD-1 mice were collected and the meninges removed. They were homogenized on ice in 5 mL of cold stock buffer (25 mM HEPES, 1% dextran and 1 envelope of Minimum Essential Medium (Invitrogen), pH 7.4). The homogenate was then filtered through a series of nylon mesh membranes (300 μm, then twice through 100 μm; Spectrum, Houston, Tex.), mixed with an equal volume of 40% dextran in stock buffer, and centrifuged at 3,000×g for 30 min at 4° C. […]
Immunohistochemistry of LRP-1 in isolated MBMs: Isolated MBMs were treated with either incubation buffer, random antisense, or antisense cocktail (10 μg/mL) in incubation buffer for 24 h. […] Fluorescence was detected with Zeiss Axiovert 40 CFL fluorescent microscope (Carl Zeiss, Inc., Thornwood, N.Y.). Images were obtained from 5-6 microvessels in each group and mean fluorescent intensity was quantified using Image J analysis software (National Institute of Health, USA).

beta-F1 ATPase = target: T2, beta-F1 ATPase (Mus musculus, UniProt P56480); assay: Brain perfusion uptake of I-PACAP27/I-PACAP38 after iv antisense; format: in vivo; details: single tail vein injection 24 h before study, 10 μg/mouse
T2 construct: from tissue; host or cells: brain / blood-brain barrier of living mice (CD-1; SAMP8 in the T-maze study)
T2 sequence (P56480 47-529): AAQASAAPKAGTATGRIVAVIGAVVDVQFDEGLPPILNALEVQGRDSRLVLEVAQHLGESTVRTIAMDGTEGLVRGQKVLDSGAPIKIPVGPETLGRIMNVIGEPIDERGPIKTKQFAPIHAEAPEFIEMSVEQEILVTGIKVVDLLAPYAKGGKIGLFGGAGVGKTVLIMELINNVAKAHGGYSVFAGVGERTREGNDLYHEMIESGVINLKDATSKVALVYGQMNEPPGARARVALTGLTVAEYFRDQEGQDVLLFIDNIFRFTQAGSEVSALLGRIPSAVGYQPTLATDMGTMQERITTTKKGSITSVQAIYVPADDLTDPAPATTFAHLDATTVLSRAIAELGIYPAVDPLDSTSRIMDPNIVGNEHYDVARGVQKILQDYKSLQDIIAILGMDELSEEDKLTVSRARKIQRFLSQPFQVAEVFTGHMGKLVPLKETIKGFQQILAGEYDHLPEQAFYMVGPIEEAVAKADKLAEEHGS
Method: To test the effectiveness of PTS-6 antisenses after their intravenous administration, two month old male CD-1 mice kept on a 12/12 hour light/dark cycle with food and water freely available were given an injection by tail vein of 0.9% saline with or without 10 μg/mouse of each of the three antisenses. To determine the specificity of the PTS-6 antisense on I-PACAP27 efflux, three other antisenses were also injected iv. These were:
After 24 h, the mice were anesthetized with urethane and both jugular veins exposed. The thorax was opened, the descending thoracic aorta clamped, both jugular veins severed, and lactated Ringer's solution containing I-PACAP27 (250,000 cpm/ml) perfused through the left ventricle of the heart at the rate of 2 ml/min. ^131I-PACAP38 (hereafter referred to as I-PACAP38) was perfused in some mice treated with PTS-6 antisense. After 5 min, the perfusion was stopped and 20 ml of lactated Ringer's solution was infused through the left ventricle of the heart to wash out the vascular space of the brain. The level of radioactivity was determined in the brain and in an aliquot of the perfusion fluid and results expressed as the brain/perfusion ratio in units of μl/g.

LRP-1 [3] = target: T1, LRP-1; assay: Brain efflux of I-Aβ42 after acute icv antisense; format: in vivo; details: 24 h after icv antisense, compared to saline
From the text: In vivo brain-to-blood efflux rate of icv antisense: A standard method was used to quantify brain-to-blood efflux rates (Banks et al., Neuroscience 121, 487-492, 2003; Jaeger et al., Proc Natl Acad Sci USA 102, 12495-12500, 2005). First, mice were anesthetized with an i.p. injection of 40% urethane. After the scalp was removed, a hole was made through the cranium (1.0 mm lateral and 0.5 mm posterior to bregma) with a 26-gauge needle. All of the needle except 2.5 to 3.0 mm of the tip was covered by PE-10 tubing. […] Injections were made into the lateral ventricle (icv) with a 1.0 μl Hamilton syringe.
For studies in which the -Slope is reported, this value was determined from a graph created with two time points (0 and 10 min) as described above. After the log of the mean % of the injected dose of radioactivity (amount detected/amount injected*100=% Inj Dose) in each brain was plotted against time (min), linear regression was used to create a line between the multiple values at these two points.
In some experiments, mice received two icv injections (antisense cocktail or saline icv and, at t=30 min or t=24 h, icv I-Aβ42). In these cases, the dose of antisense given was 200 ng/μl LR-BSA and the dose of I-Aβ42 given was 5×10^3 cpm/μl LR-BSA.
In the specificity experiment, mice received two icv injections. […]

LRP-1 [4] = target: T1, LRP-1; assay: Abluminal-to-luminal transport of I-Aβ42 in primary BMEC monolayers; format: cell-based; details: 1 μg/mL unlabeled Aβ42 in abluminal chamber
Method: Isolation of mouse brain microvascular endothelial cells (BMECs): BMECs were isolated using a modified method of Szabó et al. (Neurobiology 5, 1-16 (1997). In brief, cerebral cortices from 8-week-old CD-1 mice were isolated, cleaned of meninges, and minced. The homogenate was digested with collagenase type II (1 mg/mL) and DNase I (30 U/mL) in Dulbecco's Modified Eagle Media (DMEM) [containing 100 units/mL penicillin, 100 μg/mL streptomycin, 50 μg/mL gentamicin and 2 mM GlutaMAX-I (Invitrogen, Carlsbad, Calif.)] at 37° C. for 40 min. After digestion, 20% bovine serum albumin (BSA) dissolved in DMEM was added. The sample was then centrifuged at 1,000×g for 20 min, the supernatant containing the neurons and glial cells was removed, and the pellet containing the microvessels further digested at 37° C. for 30 min with collagenase/dispase at a concentration of 1 mg/mL (Roche, Mannheim, Germany) and DNase I (30 U/mL dissolved in DMEM). After the second enzyme digestion, we then layered the pellet on a 33% Percoll (Amersham Biosciences, Piscataway, N.J.) gradient and centrifuged at 1,000×g for 10 min to separate the microvessels. To create the Percoll gradient, 33% Percoll solution (8 mL Percoll, 14.4 mL phosphate buffered saline; PBS, 0.8 mL plasma derived serum; PDS, and 0.8 mL 10×PBS) was centrifuged at 20,300×g for 1 h, prior to this step. […]

Row | Substance | uptake of I-PACAP27 delivered by brain perfusion (beta-F1 ATPase) | brain efflux of I-Aβ42 (specificity experiment) (LRP-1 [3]) | other results
1 | 5′-GGACTAAATGCTTTCCTTTGTGACAG-3′ (listed as DNA, chemistry not given here; listed as Rattus norvegicus) [SEQ ID NO 16] | – | – | P-glycoprotein expression in the brain (P-glycoprotein): reduction of the rat P-glycoprotein expression
2 | 5′-(_P═S)GAGAAGGTTGTGTGATCTTCA (antisense dG*dA*dG*dA*dA*dG*dG*dT*dT*dG*dT*dG*dT*dG*dA*dT*dC*dT*dT*dC*dA; listed as Mus musculus) [random antisense] | – | – | time spent investigating the novel object (LRP-1 [1]): spent a majority of their time investigating the new object; mean fluorescent intensity (LRP-1 immunofluorescence) (LRP-1 [2]): 111.14%
3 | 5′-(_P═S)GGCGCCTTTGTTCGAACCCACATCTTCAGCAAAGAACACCAG-3′ (antisense dG*dG*dC*dG*dC*dC*dT*dT*dT*dG*dT*dT*dC*dG*dA*dA*dC*dC*dC*dA*dC*dA*dT*dC*dT*dT*dC*dA*dG*dC*dA*dA*dA*dG*dA*dA*dC*dA*dC*dC*dA*dG; listed as Mus musculus) | no statistically significant effect | significant increase | –
4 | 5′-(_P═S)TCATGAAGCC-3′ (antisense dT*dC*dA*dT*dG*dA*dA*dG*dC*dC; listed as Mus musculus) | no statistically significant effect | significant increase | –
5 | Aβ42: 42 amino acid murine amyloid beta (DAEFGHDSGFEVRHQKLVFFAEDVGSNKGAIIGLMVGGVVIA; Amyloid-beta protein 42; UniProt P12023 672-713, looked up) | – | – | abluminal-to-luminal transport of I-Aβ42 (saturability) (LRP-1 [4]): significantly (p<0.01) inhibited
